A short description of series [1]: DPPH free radical-scavenging/antioxidant assay. The class given is biochemical. Particulars: 50 μM DPPH in 80% methanol; 24 h time point; read-out: EC50 (concentration at which a compound reduces by 50% the peak absorbance of DPPH at 520 nm). The method, boiled down: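 Compounds diluted 100-fold from DMSO stocks into 50 μM DPPH in 80% methanol; absorbance at 520 nm followed kinetically to steady state, with the 24 h reading used. EC50 interpolated from OD520 versus concentration; Trolox, BHA, PBN and S-PBN as positive controls, DMSO as vehicle.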
(In general: The DPPH test is a chemical assay of radical scavenging.)

Series [2] in a line: Microsomal stability in human liver microsomes. In kind it is in vitro ADME. The following applies: NADPH, 37° C. How it is done:
Frozen Sprague-Dawley rat liver microsomes (RLM) were thawed on ice and gently mixed before use. The final reaction mixture consisted of a nitrone compound of this invention (at ˜500 ng/ml), 1 mM NADPH, and 0.5 mg/ml of RLM protein in 0.1 M PBS (pH7.4), with organic solvent concentration not exceeding 1% (v/v). Per set of incubations, a positive control compound was included. The mixture was first pre-incubated 3 to 5 minutes at 37° C. without NADPH, and the reaction was then initialized by the addition of NADPH and incubated at 37° C. for up to 30 minutes. An aliquot of the reaction mixture was sampled at the initiation of the reaction and at designated time after reaction started. The drawn samples were quenched with acetonitrile, diluted with mobile phase to ensure the detection of test article in the linear range, and analyzed by LC/MS/MS. Half-life or percentage of remaining nitrone compound was calculated using standard methods. A similar method, or a slight variation of it, was used to test the stability of nitrones in human liver microsomes (HLM).
In general terms: Liver microsomes are vesicles of endoplasmic reticulum, rich in cytochrome P450 enzymes.

Series [3] in a line: Solubility measurement at pH 7.4. The following applies: aqueous buffer, thermodynamic from solid, phosphate buffer pH 7.4, room temperature. The class given is physicochemical. How it is done:
Nitrone compounds (>3 mg) of this invention were mixed with a phosphate buffer at pH 7.4 to make a >0.3 mg/mL mixture. The mixture was vortexed for more than 2 hours and equilibrated over 12 hours at room temperature. The equilibrated mixture was used to saturate a 0.45 μm Tuffryn syringe filter. After saturating, the remainder of the mixture was filtered through the saturated filter. The filtrate was diluted by 1, 10, 100, and 1000 fold and analyzed using a LC/MS/MS method with standard curve ranging from 1 to 1000 ng/mL.

Series [4] can be described thus: Pharmacokinetic evaluation following intravenous and oral administration in rats. The following applies: male, Sprague-Dawley; for Cmax / Tmax / bioavailability: 5 mg/kg; for Cmax: rat plasma; for Cmax / Tmax: oral gavage, 2 mg/mL at 2.5 mL/kg; for clearance / Vd / Tmax / bioavailability / half-life: plasma, rat; for clearance / Vd / half-life: 1 mg/kg; for clearance / Vd: intravenous administration, 1 mg/mL at 1.0 mL/kg; for clearance: read-out: CI (clearance) (converted); for Vd: read-out: Vd (volume of distribution); for bioavailability: po 2 mg/mL at 2.5 mL/kg vs iv 1 mg/mL at 1.0 mL/kg, dose-normalized, read-out: F (%) oral bioavailability; for half-life: intravenous, read-out: T1/2 elimination half life (converted). The class given is in vivo. The method in brief: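 Male Sprague-Dawley rats, fasted, dosed iv (1 mg/mL formulation, 1.0 mL/kg, jugular or tail vein) or by oral gavage (2 mg/mL suspension, 2.5 mL/kg). Plasma sampled from 2 min to 480 min, some to 24 h, and quantified by LC-MS/MS (MRM). Parameters from noncompartmental analysis.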

In the next series the test system is CCI rats. Nature of the series: Mechanical allodynia in mononeuropathic pain model (chronic constrictive injury, CCI, Bennett model). The class given is in vivo, SD rats. Particulars: for PWT ipsilateral hind paw (von Frey): 50 mg/kg p.o. single dose, mean ± SEM; for anti-allodynic effect on ipsilateral hind paw vs vehicle (in words): single dose 50 mg/kg, p.o. The source says: Adult male SD rats weighing 250-300 gm (Charles River Laboratories, San Diego, Calif.) were used. The animal room was lighted artificially at a 12-hr light-dark cycle (7:00 A.M. to 7:00 P.M) with water and food supply ad libitum. Animals were allocated randomly into groups. Seven days before establishing the mononeuropathic pain disease model, rats were trained on a metal mesh floor, covered with a plastic box (10×10×18 cm) 1-2 hr per day to habituate. During the habituating phase, non-painful tactile stimulation on the plantar surface of each hind paw was induced by a set of calibrated von Frey filaments, through the mesh floor, as described in example 2.
Following the 7-day training phase, the animals were anesthetized by i.p. injection of sodium pentobarbital (65 mg/kg, Abbott Lab, Chicago, Ill.). Under aseptic procedures, the skin of the left thigh was cut open for ˜2 cm. Mid-thigh level of the common sciatic nerve was exposed after blunt separation of the muscles. Two 4-0 silk and one 4-0 chromic gut sutures (both from Ethicon, Somerville, N.J.) were loosely ligated around the nerve, with a 1-1.5 mm interval between each of them. Skin wound was then close with wound clips. The right side (i.e., the contralateral side) was not surgically injured. After recovery from surgery, rats showing post-surgery neurological deficits or poor grooming were excluded from the experiments. This surgical procedure (i.e., chronic constrictive injury, CCI, or Bennett model) to establish mononeuropathic pain disease model has been described elsewhere (Bennett, G. J. and Xie, Y. K.: A peripheral mononeuropathy in rat that produces disorders of pain sensation like those seen in man. Pain, 33: 87-107, 1988).
On days 1, 3, 4, 7, 9, 11, and 14 after surgery, animals were tested for mechanical allodynia with von Frey filaments as described previously. On or around post-surgical day 14, the ipsilateral hind paw, felt to 5 grams, an indication of allodynia began to manifest mechanical allodynia (i.e., amplified response to non-painful tactile stimulation by von Frey filaments). The contralateral hind paws remained above the 5-gram level (i.e., no allodynia).
After manifestation of this allodynia, Compound 62 (50 mg/kg, p.o.), Compound 63 (50 mg/kg, p.o.), Compound 66 (50 mg/kg, p.o.), Compound 23 (50 mg/kg, p.o.), 4-hydroxy-tempol (TEMPOL, 50 mg/kg, p.o.), or piroxicam (a COX1 inhibitor, 50 mg/kg, p.o.) were administered to randomly-assigned animals. Changes of mechanical allodynia in the ipsilateral hind paw were recorded at several time points over the course of up to 24 hr.

The subject of series [5] is carrageenan-sensitized inflammatory model of rat. Nature of the series: Carrageenan-sensitized thermal hyperalgesia (Hargreaves test). In kind it is in vivo. The following applies: 30 mg/kg oral, data not shown. How it is done: In this experiment, animals were habituated to the test environment for 2 days. Each rat was individually placed on a transparent perplex glass floor, covered with a plastic box (10×10×18 cm), and allowed 0.5-1 hr to habituate. After the acclimation period, basal thermal withdrawal latency (PWL, time interval between heat stimulation and paw withdrawal) was measured by exposing the plantar surface of a rats hind paw to a beam of radiant heat generated from a focused projection bulb through a transparent perplex glass surface (Hargreaves test; Hargreaves, K. R., Dubner, R., Brown, F., Flores, C. & Joris, J.: A new and sensitive method for measuring thermal nociception in cutaneous hyperalgesia. Pain, 32: 77-88, 1988). The PWL was averaged from at least two trials separated by a 2 min interval. A timer was used to measure the withdrawal latency and a cut of time of 20-sec was used to prevent tissue damage. Before the test on STZ-diabetic rats, the intensity of the radiating heat was adjusted to the level that caused naive animal to withdraw its paw at around 10 seconds.
After a stable basal PWL was obtained, the animals were briefly anesthetized with isoflurane (2-5% to effect). One side of their hind paws received an intraplantar injection of lambda carrageenan (2 mg in 100 microliter sterile saline, Sigma, St. Louis, Mo.). The contralateral side received no injection and served as an intra-subject control. The animals were then returned to their home cages and transferred to the individual testing chambers for heat thermal hyperalgesic testing, 2.5 hr after carrageenan injection. 3-hr post-carrageenan injection, PWLs of both hind paws (i.e., ipsilateral and contralateral) were measured at several time points post-carrageenan injection (15-min to 24-hr).
For compound testing, rats were randomly enrolled into groups that, immediately after the 3-hr post-carrageenan PWL was obtained, received oral dosing of Compound 62 (50 mg/kg), Compound 63 (50 mg/kg), vehicle (1 ml/kg), or indomethacin (30 mg/kg). Compound 62 and Compound 63 were prepared as a suspension in vehicle (96% of 0.5% CMC and 4% of 10% Tween 80) while indomethacin was prepared as a 30 mg/ml in normal saline.

[6] abbreviates: read-out: Solubility @ pH 7.4 (μg/mL).

Each structure is given as a SMILES string. Where two headings read alike, the source gives them in different places.

One may read the Cmax as the maximum level reached in the sampled fluid or tissue. The term Tmax denotes the time at which the peak concentration occurs. The bioavailability is the share of a dose that reaches the circulation, judged against a reference dose that is usually intravenous.

Regarding `O=S(=O)(c1ccccc1/C=[N+](\[O-])Cc1ccccc1)N1CCCc2ccccc21` [Compound 46, N-Benzyl-C-[2-(3,4-dihydro-2H-quinoline-1-sulfonyl)phenyl]nitrone], the EC50 in series [1] is more than 1000 µM. Further, the “% of Nitrone Remaining at 30 min (Human)” value in series [2] worked out at 0%. The figures for the solubility in series [3] (read-out: Solubility @ pH 7.4) and in series [3] (setting [6]) were 5.26 µM and 2.14 µg/mL, respectively.
With `CC(C)(C)/[N+]([O-])=C/c1cccnc1S(C)(=O)=O` [Compound 73, N-tert-Butyl-C-(2-methanesulfonyl-pyridine-3-yl)nitrone], in series [1], the EC50 was more than 1000 µM. Further, the “% of Nitrone Remaining at 30 min (Human)” value in series [2] is given as 100%. In series [3] (read-out: Solubility @ pH 7.4), the solubility was more than 11300 µM. In series [3] (setting [6]), the solubility is more than 2900 µg/mL. In addition, in series [4], the highest level (Cmax) was 4170 ng/mL, the clearance is 3.33 mL/min/kg, the Vd was determined as 0.8 L/kg and the time to peak (Tmax) is 85.2 min. Moreover, in series [4], the bioavailability was 72.2% and the half-life was 166 min.
Turning to `CC(C)(C)/[N+]([O-])=C/c1cc2ccccc2nc1S(C)(=O)=O` [Compound 74, N-tert-Butyl-C-(2-methanesulfonyl-quinoline-3-yl)nitrone], the EC50 in series [1] was more than 1000 µM. Also, the “% of Nitrone Remaining at 30 min (Human)” value in series [2] worked out at 75.7%. Moreover, in series [3] (read-out: Solubility @ pH 7.4), the solubility was 96 µM. In series [3] (setting [6]), the solubility amounted to 29.4 µg/mL. In series [4], the highest concentration (Cmax) worked out at 12 ng/mL, the clearance was 376 mL/min/kg, the Vd was determined as 10.7 L/kg and the Tmax turned out to be 11.4 min. Moreover, in series [4], the bioavailability stood at 9.4% and the half-life was 19.2 min.
As to `CS(=O)(=O)c1ncccc1/C=[N+](\[O-])Cc1ccccc1` [Compound 75, N-Benzyl-C-(2-methanesulfonyl-pyridine-3-yl)nitrone], the EC50 in series [1] was more than 1000 µM. For the same compound, the “% of Nitrone Remaining at 30 min (Human)” value in series [2] is recorded as 95.1%. The solubility in series [3] (read-out: Solubility @ pH 7.4) was found to be 2920 µM. In addition, the solubility in series [3] (setting [6]) worked out at 848 µg/mL. In addition, in series [4], the Cmax turned out to be 1030 ng/mL, the clearance was 21.8 mL/min/kg, the Vd was found to be 1.07 L/kg and the time of peak concentration (Tmax) worked out at 11.4 min. Moreover, in series [4], the bioavailability stood at 50.2% and the half-life was 34.2 min.
Regarding `CS(=O)(=O)c1ncccc1/C=[N+](\[O-])C1CCCCC1` [Compound 76, N-Cyclohexyl-C-(2-methanesulfonyl-pyridine-3-yl)nitrone], in series [1], the EC50 was more than 1000 µM. Besides, the “% of Nitrone Remaining at 30 min (Human)” value in series [2] was determined as 90.5%. Besides, the solubility is more than 4070 µM in series [3] (read-out: Solubility @ pH 7.4) and more than 1150 µg/mL in series [3] (setting [6]).
On to `CC1(C)CC(O)CC(C)(C)N1[O]` [TEMPOL, 4-hydroxy-tempol, reference compound], for which the “PWT ipsilateral hind paw (von Frey)” value in the series with CCI rats (post-dosing time 30 min) amounted to 4.80 ± 0.49 gm; in the series on CCI rats (post-dosing time 60 min) it was 4.80 ± 0.49 gm; in the series with CCI rats (post-dosing time 300 min), 5.48 ± 1.09 gm; in the series on CCI rats (post-dosing time 1440 min), 4.80 ± 1.02 gm; in the series on CCI rats (post-dosing time −15 min (pre-dose)), 4.00 ± 0.89 gm. Further, the “anti-allodynic effect on ipsilateral hind paw vs vehicle (in words)” value in the series on CCI rats is on record as “no significant anti-allodynic effect”.
On to `COc1ccc2c(c1)c(CC(=O)O)c(C)n2C(=O)c1ccc(Cl)cc1` [indomethacin, reference compound], for which, in series [5], the “effect on carrageenan-sensitized heat hyperalgesia (in words)” value is on record as “significantly reversed carrageenan-sensitized heat hyperalgesia”.
Turning to `CN1C(C(=O)Nc2ccccn2)=C(O)c2ccccc2S1(=O)=O` [piroxicam, reference compound], in the series with CCI rats, the “anti-allodynic effect on ipsilateral hind paw vs vehicle (in words)” value was “long-lasting anti-allodynic effect”.

For the origin of these results see patent US20100168112A1, “2-Substituted and 4-substituted aryl nitrone compounds” (RENOVIS, INC., priority 2004, published 2010).
